3 molecules from patent publication US9061009B2, “Mixed lineage kinases and metabolic disorders” (University of Massachusetts, priority 2007, dated 2015) can be followed below.

Test [1] can be described thus: Established insulin resistance in ob/ob mice. It is filed as in vivo. Conditions: s.c. 0.5 or 2.5 mg/kg twice per day for two weeks, vs vehicle control. The protocol: The effects of the MLK inhibitor CEP-1347 to alleviate established insulin resistance in mice is determined. Ten-week old ob/ob mice (Jackson Laboratory, Bar Harbor, Me.) are obese and display hyperinsulinemia, hyperglycemia, decreased insulin sensitivity, and impaired glucose disposal. Such mice are administered CEP-1347 subcutaneously (s.c.) at a dose of 0.5 or 2.5 mg/kg or vehicle control, twice per day for two weeks. Blood glucose concentrations are measured with a DEX® glucometer (Bayer, Tarrytown, N.Y.), and plasma insulin is measured by ELISA kit for rat insulin (Crystal Chem, Downers Grove, Ill.). Following day 14 of the treatment, glucose tolerance tests are performed by i.p. administration of glucose (1.8 g/kg) and measurement of blood glucose at t=15, 30, 60, 90, and 120 minutes. Insulin tolerance tests are performed similarly except with the injection of human insulin (1 unit per kg; Lilly Research Laboratories, Indianapolis).

Test [2] can be described thus: Development of insulin resistance in mice fed a high fat diet. It is filed as in vivo. Particulars: male mice, high fat diet 16 weeks; s.c. 0.5 or 2.5 mg/kg twice per day; vs control treatment. The protocol: The effects of the MLK inhibitor CEP-1347 on development of insulin resistance in mice is determined. Male mice are fed a high fat diet ad libitum (Diet F3282, Bio-Serv, Frenchtown, N.J.) or a standard diet for 16 weeks, with each group administered CEP-1347 subcutaneously (s.c.) at a dose of 0.5 or 2.5 mg/kg or vehicle control, twice per day. Body mass is recorded weekly, and blood samples are collected from the tail vain after an overnight fast after 6, 12, and 16 weeks on the diet. Blood glucose concentrations are measured with a DEX® glucometer (Bayer, Tarrytown, N.Y.), and plasma insulin is measured by ELISA kit for rat insulin (Crystal Chem, Downers Grove, Ill.). Glucose tolerance tests are performed by i.p. administration of glucose (1.8 g/kg) and measurement of blood glucose at t=15, 30, 60, 90, and 120 minutes in 16-week-old mice. Insulin tolerance tests are done similarly except with the injection of human insulin (1 unit per kg; Lilly Research Laboratories, Indianapolis). Untreated animals fed the high fat diet display hyperinsulinemia, hyperglycemia, decreased insulin sensitivity, and impaired glucose disposal.

Another test concerns JNK. Kind of test: FFA-stimulated JNK activation in MEF (in vitro kinase assay with cJun / immunoblot). It is filed as cell-based, mouse.
The next test deals with MLK3. Kind of test: MLK3 T-loop (Thr-277, Ser-281) phosphorylation immunoblot in MEF. Conditions: MEF pretreated with phorbol ester, then FFA. It is filed as cell-based, mouse. The protocol:
Wild-type, Mkk4^−/−, Mkk7^−/−, and Mkk4^−/− Mkk7^−/− MEF (Tournier et al., 2001, Genes Dev., 15:1419-1426) and wild-type and Mlk3^−/− MEF have been previously described (Brancho et al., 2005, Mol. Cell. Biol., 25:3670-3681). Wild-type and Pkcζ^−/− MEF have also been described (Leitges et al., 2001, Mol. Cell, 8:771-780). MEF and HEK293 cells (American Type Culture Collection) were cultured in Dulbecco's modified Eagle's medium (DMEM) supplemented with 10% fetal bovine serum (Invitrogen, Carlsbad, Calif.). HEK293 cells were transfected with Lipofectamine™ transfection reagent (Invitrogen, Carlsbad, Calif.). Sodium salts of fatty acids (Sigma-Aldrich, St. Louis, Mo.) were dissolved in PBS and mixed with free fatty acid (FFA)-free BSA (Roche). Stearic acid (Sigma-Aldrich, St. Louis, Mo.) was dissolved in ethanol and added to serum-free DMEM supplemented with 2% FFA-free BSA. […]
Protein extracts were prepared using lysis buffer [20 mM Tris™ buffer (pH 7.4), 1% Triton™ X-100 detergent, 10% glycerol, 137 mM NaCl, 2 mM EDTA, 25 mM β-glycerophosphate, 1 mM sodium orthovanadate, 1 mM phenylmethylsulfonyl fluoride, and 10 μg/mL of aprotinin and leupeptin]. […] JNK activity was measured in an in vitro kinase assay using [γ-^32P]ATP and cJun as substrates (Whitmarsh and Davis, 2001, Methods Enzymol., 332:319-336). […]
In general terms: A western blot detects proteins with antibodies after separation by electrophoresis.

For test [3], the system named is diacylglycerol-responsive PKC isoforms (α, δ, and ε). The test is described as follows: Down-regulation of PKC isoforms in MEF by phorbol ester. Particulars: 1 μM, 24 hours. It is filed as cell-based, mouse. The protocol: FIG. 7C is a set of nine gels depicting expression of PKCα, PKCδ, PKCε, MLK3, phospho-MLK3 (MLK3-P), JNK, and Tubulin and in vitro kinase activity (KA) on cJun (cJun-P) of PKGζ^−/− MEF pretreated with 1 μM TPA for 24 hours and then treated with 0.5 mM palmitate for 16 hours.
To test the requirement of PKC for FFA-stimulated MLK3 and JNK activation, the effect of PKC down-regulation was examined. In initial studies, siRNA was used to down-regulate the PKC isoforms expressed in MEF (PKCα, PKCδ, PKCε, and PKCζ). Down-regulation of individual PKC isoforms caused no change in FFA-induced MLK3 or JNK activation. […] Efficient simultaneous down-regulation of multiple PKC isoforms using siRNA was not obtained. An alternative approach was therefore used to obtain MEF lacking multiple PKC isoforms. […] The effect of pan-PKC deficiency was therefore examined by treating Pkcζ^−/− MEF with TPA (FIG. 7C).

Protocol for JNK: MEF and HEK293 cells (American Type Culture Collection) were cultured in Dulbecco's modified Eagle's medium (DMEM) supplemented with 10% fetal bovine serum (Invitrogen, Carlsbad, Calif.). […] Sodium salts of fatty acids (Sigma-Aldrich, St. Louis, Mo.) were dissolved in PBS and mixed with free fatty acid (FFA)-free BSA (Roche). Stearic acid (Sigma-Aldrich, St. Louis, Mo.) was dissolved in ethanol and added to serum-free DMEM supplemented with 2% FFA-free BSA. After 1 hour incubation in serum-free DMEM, cells were treated with 0.5 mM fatty acid/0.5% BSA for 1-16 hours at 37° C.
Protein extracts were prepared using lysis buffer [20 mM Tris™ buffer (pH 7.4), 1% Triton™ X-100 detergent, 10% glycerol, 137 mM NaCl, 2 mM EDTA, 25 mM β-glycerophosphate, 1 mM sodium orthovanadate, 1 mM phenylmethylsulfonyl fluoride, and 10 μg/mL of aprotinin and leupeptin]. Extracts (50 μg of protein) were examined by immunoblot analysis with antibodies obtained from Cell Signaling (MLK3, phosphoThr277, Ser281-MLK3, ERK, phospho-ERK, p38, phospho-p38, AKT, phosphoSer473-AKT, PKCα, PKCδ, phospho-T-loop-PKC, and phospho-JNK), Transduction Labs (PKCε), PharMingen (JNK), Sigma (α-Tubulin), and Upstate Biotechnology (IRS1, phosphoSer307-IRS1 and phospho-MKK7). JNK activity was measured in an in vitro kinase assay using [γ-^32P]ATP and cJun as substrates (Whitmarsh and Davis, 2001, Methods Enzymol., 332:319-336). […]

With `CCSCc1ccc2c(c1)c1c3c(c4c5cc(CSCC)ccc5n5c4c1n2[C@H]1C[C@](O)(C(=O)OC)[C@]5(C)O1)CNC3=O` [CEP-1347], in test [1], the hyperinsulinemia and hyperglycemia entry is “decreases hyperinsulinemia and hyperglycemia”; the “insulin and glucose tolerance” value was “at least partially restores insulin and glucose tolerance”. In addition, the “hyperinsulinemia, hyperglycemia, decreased insulin sensitivity, impaired glucose disposal” value in test [2] was “decreases these symptoms”.

Consider `CCCCCCCCCCCCCCCCCC(=O)O` [stearate, stearic acid], for which the JNK activation entry in the test with JNK (MEF, 0.5 mM FFA, 16 hours) is given as “resulted in JNK activation”.

Turning to `CCCCCCCCCCCCCC(=O)O[C@@H]1[C@@H](C)[C@@]2(O)[C@@H](C=C(CO)C[C@]3(O)C(=O)C(C)=C[C@@H]23)[C@@H]2C(C)(C)[C@]12OC(C)=O` [TPA, Phorbol-12-Myristate-13-Acetate], the “effect on FFA-induced JNK activation” value with JNK (MEF pretreated with phorbol ester, then FFA) was “did not affect”. Besides, in the test with MLK3, the “effect on FFA-induced MLK3 activation” value is “did not affect”. Besides, the “down-regulation of PKC isoforms” value in test [3] was “caused down-regulation of diacylglycerol-responsive PKC isoforms (α, δ, and ε)”.
